For test [1], the target named is T1, β5 subunit of the human immunoproteasome (IPS) (Homo sapiens, UniProt P28062).
T1 construct: purchased Boston Biochem E-370
The test can be described thus: β5 inhibition assay, human immunoproteasome (Suc-LLVY-AMC). It counts as biochemical. The note with it: IC50 class, Suc-LLVY-AMC substrate. Summed up:
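β5 activity is read as liberated AMC fluorescence (355/460 nm) after 4 h dark reaction at RT with 22.6 μM Suc-LLVY-AMC, stopped by 1 μM bortezomib. Beforehand, 1 nM human IPS and compound sat 10 min at RT in HEPES pH 7.5 buffer containing NaCl, 0.02% SDS and DTT.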

The test system of test [2] is MM1 S (B lymphoblast cell line). The test can be described thus: 48 hr CTG viability assay, MM1S. Format: cell-based. The note with it: Homo sapiens, 48 hr CTG, read-out: MM1S IC50. Summed up:
(§1)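 Growth inhibition by compound over 48 h; IC50 (nM) derived from duplicate CellTiter-Glo luminescence readings across 0.0015–10 uM.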

The subject of test [3] is Hs 746T (human gastric carcinoma cell line). In words: 48 hr CTG viability assay, Hs 746T. It counts as cell-based. The note with it: Hs746T, 48 hr CTG, read-out: Hs 746T IC50. Summed up:
as §1

Test [4] relates to RPMI 8226 (B lymphocyte cell line, multiple myeloma). The test can be described thus: 48 hr CTG viability assay, RPMI 8226. It counts as cell-based. The note with it: Homo sapiens, RPMI-8226; 48 hr CTG; read-out: RPMI-8226 IC50. Summed up:
as §1

The subject of test [5] is A549 (human lung carcinoma cell line). In words: Glo assay of A549 cells (Table 3; ProteasomeGlo plating scheme). Format: cell-based. The note with it: Homo sapiens; A549 cells; read-out: PGLo A549. Summed up:
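IC50 values (nM) come from a cell-based chymotrypsin-like Proteasome-Glo luminescence assay. Compound exposure ran 105 min at 37° C.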

Test [6] addresses T2, β5 subunit of the human constitutive proteasome (CPS) (Homo sapiens, UniProt P28074).
T2 construct: purchased Boston Biochem E-360
In words: β5 inhibition assay, human constitutive proteasome (Suc-LLVY-AMC). Format: biochemical. The note with it: IC50 class, Suc-LLVY-AMC substrate. How it is done:
The enzymatic activity of the β5 subunit of the human constitutive proteasome (CPS) is analyzed. In another assay, which differs from the assay of the human constitutive proteasome only in using the human immunoproteasome (IPS) the enzymatic activity of the β5 subunit of the human immunoproteasome (IPS) is analyzed. […] Inhibition is indicated as IC50 [nM] (“-”=not measured).

Consider `Cc1ccc2cc1CNC(=O)[C@H](CCc1ccccc1)NC(=O)[C@@H](NC(=O)CCN1CCCC1)CC(=O)N1CCCC(CCO2)C1` (stereo partly drawn) [Compound 668, N-((9S,12S)-5^4-methyl-8,11,14-trioxo-9-phenethyl-4-oxa-7,10-diaza-1(3,1)-piperidina-5(1,3)-benzenacyclotetradecaphane-12-yl)-3-(pyrrolidin-1-yl)propanamide], for which the IC50 in test [1], in test [2], in test [3], in test [4], in test [5] and in test [6] was less than 100 nM in each case.
Consider `Cc1ccc2cc1CNC(=O)[C@H](CCc1ccccc1)NC(=O)[C@@H](N1CCCC1)CC(=O)N1CCCC(CCO2)C1` (stereo partly drawn) [Compound 731, (9S,12S)-5^4-methyl-9-phenethyl-12-(pyrrolidin-1-yl)-4-oxa-7,10-diaza-1(3,1)-piperidina-5(1,3)-benzenacyclotetradecaphane-8,11,14-trione], for which the IC50 was less than 100 nM in test [1]; 100 to 500 nM in test [2]; 1000 to 5000 nM in test [3]; 500 to 1000 nM in test [4]; 1000 to 5000 nM in test [5]; 100 to 500 nM in test [6].
`Cc1ccc2cc1CNC(=O)[C@H](CCc1ccccc1)NC(=O)[C@@H](NC(=O)CCOCCC1CC1)CC(=O)N1CCCC(CCO2)C1` (stereo partly drawn) [Compound 630, 3-(2-cyclopropylethoxy)-N-((9S,12S)-5^4-methyl-8,11,14-trioxo-9-phenethyl-4-oxa-7,10-diaza-1(3,1)-piperidina-5(1,3)-benzenacyclotetradecaphane-12-yl)propanamide]: the IC50 in test [1], in test [2], in test [3], in test [4], in test [5] and in test [6] was less than 100 nM each time.
In the case of `COc1ccccc1CCOCCC(=O)N[C@H]1CC(=O)N2CCCC(CCOc3ccc(C)c(c3)CNC(=O)[C@H](CCc3ccccc3)NC1=O)C2` (stereo partly drawn) [Compound 582, 3-(2-methoxyphenethoxy)-N-((9S,12S)-5^4-methyl-8,11,14-trioxo-9-phenethyl-4-oxa-7,10-diaza-1(3,1)-piperidina-5(1,3)-benzenacyclotetradecaphane-12-yl)propanamide], the IC50 in test [1], in test [2], in test [3], in test [4], in test [5] and in test [6] was less than 100 nM throughout.
For the compound `Cc1ccc2cc1CNC(=O)[C@H](CCc1ccccc1)NC(=O)[C@@H](NCC(F)(F)F)CC(=O)N1CCCC(CCO2)C1` (stereo partly drawn) [Compound 709, (9S,12S)-5^4-methyl-9-phenethyl-12-((2,2,2-trifluoroethyl)amino)-4-oxa-7,10-diaza-1(3,1)-piperidina-5(1,3)-benzenacyclotetradecaphane-8,11,14-trione], the IC50 in test [1] was less than 100 nM; in test [2], less than 100 nM; in test [3] it was 100 to 500 nM; in test [4] it was less than 100 nM; in test [5], less than 100 nM; in test [6], less than 100 nM.
Take `Cc1ccc2cc1CNC(=O)[C@H](CCc1ccccc1)NC(=O)[C@@H](NC1CCC1)CC(=O)N1CCCC(CCO2)C1` (stereo partly drawn) [Compound 717, (9S,12S)-12-(cyclobutylamino)-5^4-methyl-9-phenethyl-4-oxa-7,10-diaza-1(3,1)-piperidina-5(1,3)-benzenacyclotetradecaphane-8,11,14-trione]: the IC50 in test [1] was less than 100 nM; in test [2], 100 to 500 nM; in test [3] it was 100 to 500 nM; in test [4] it was 100 to 500 nM; in test [5], less than 100 nM; in test [6], less than 100 nM.
As for `CC(=O)c1ccc(CC(=O)N[C@H]2CCC(=O)NCCCCOc3ccc(C)c(c3)CNC(=O)[C@H](CCc3ccccc3)NC2=O)cc1` [Compound 707, 2-(4-acetylphenyl)-N-((11S,14S)-1^4-methyl-8,12,15-trioxo-1^4-phenethyl-2-oxa-7,13,16-triaza-1(1,3)-benzenacycloheptadecaphane-11-yl)acetamide], the IC50 in test [1], in test [2], in test [3], in test [4], in test [5] and in test [6] was less than 100 nM throughout.
Regarding `Cc1ccc2cc1CNC(=O)[C@H](CCc1ccccc1)NC(=O)[C@@H](NCC(C)(C)N)CC(=O)N1CCCC(CCO2)C1` (stereo partly drawn) [Compound 727, (9S,12S)-12-((2-amino-2-methylpropyl)amino)-5^4-methyl-9-phenethyl-4-oxa-7,10-diaza-1(3,1)-piperidina-5(1,3)-benzenacyclotetradecaphane-8,11,14-trione], the IC50 in test [1] was less than 100 nM; in test [2] it was 500 to 1000 nM; in test [3] it was 1000 to 5000 nM; in test [4], 100 to 500 nM; in test [5], 100 to 500 nM; in test [6], less than 100 nM.
In the case of `Cc1ccc2cc1CNC(=O)[C@H](CCc1ccccc1)NC(=O)[C@@H](NC(=O)CCN1CCC3(CCOCC3)CC1)CC(=O)N1CCCC(CCO2)C1` (stereo partly drawn) [Compound 611, N-((9S,12S)-5^4-methyl-8,11,14-trioxo-9-phenethyl-4-oxa-7,10-diaza-1(3,1)-piperidina-5(1,3)-benzenacyclotetradecaphane-12-yl)-3-(3-oxa-9-azaspiro[5.5]undecan-9-yl)propanamide], the IC50 in test [1], in test [2], in test [3], in test [4], in test [5] and in test [6] was less than 100 nM throughout.
On to `Cc1ccc2cc1CNC(=O)[C@H](CCc1ccccc1)NC(=O)[C@@H](NC(=O)C1CCC3(CCOCC3)CC1)CC(=O)N1CCCC(CCO2)C1` (stereo partly drawn) [Compound 584, N-((9S,12S)-5^4-methyl-8,11,14-trioxo-9-phenethyl-4-oxa-7,10-diaza-1(3,1)-piperidina-5(1,3)-benzenacyclotetradecaphane-12-yl)-3-oxaspiro[5.5]undecane-9-carboxamide], for which the IC50 in test [1], in test [2], in test [3], in test [4], in test [5] and in test [6] was less than 100 nM throughout.
With `Cc1ccc2cc1CNC(=O)[C@H](CCc1ccccc1)NC(=O)[C@@H](NC(=O)C1CC3(C1)CN(C(=O)OC(C)(C)C)C3)CC(=O)N1CCCC(CCO2)C1` (stereo partly drawn) [Compound 580, tert-butyl 6-(((9S,12S)-5^4-methyl-8,11,14-trioxo-9-phenethyl-4-oxa-7,10-diaza-1(3,1)-piperidina-5(1,3)-benzenacyclotetradecaphane-12-yl)carbamoyl)-2-azaspiro[3.3]heptane-2-carboxylate], the IC50 in test [1], in test [2], in test [3], in test [4], in test [5] and in test [6] was less than 100 nM in each case.
With `Cc1ccc2cc1CNC(=O)[C@H](CCc1ccccc1)NC(=O)[C@@H](NC(=O)CCOC1CC1)CC(=O)N1CCCC(CCO2)C1` (stereo partly drawn) [Compound 597, 3-cyclopropoxy-N-((9S,12S)-5^4-methyl-8,11,14-trioxo-9-phenethyl-4-oxa-7,10-diaza-1(3,1)-piperidina-5(1,3)-benzenacyclotetradecaphane-12-yl)propanamide], the IC50 in test [1], in test [2], in test [3], in test [4], in test [5] and in test [6] was less than 100 nM throughout.
As to `COc1ccccc1CCCOCCC(=O)N[C@H]1CC(=O)N2CCCC(CCOc3ccc(C)c(c3)CNC(=O)[C@H](CCc3ccccc3)NC1=O)C2` (stereo partly drawn) [Compound 637, 3-(3-(2-methoxyphenyl)propoxy)-N-((9S,12S)-5^4-methyl-8,11,14-trioxo-9-phenethyl-4-oxa-7,10-diaza-1(3,1)-piperidina-5(1,3)-benzenacyclotetradecaphane-12-yl)propanamide], the IC50 in test [1], in test [2], in test [3], in test [4], in test [5] and in test [6] was less than 100 nM each time.
Consider `CCN1CCN(C(=O)N[C@H]2CC(=O)N3CCCC(CCOc4ccc(C)c(c4)CNC(=O)[C@H](CCc4ccccc4)NC2=O)C3)CC1` (stereo partly drawn) [Compound 688, 4-ethyl-N-((9S,12S)-5^4-methyl-8,11,14-trioxo-9-phenethyl-4-oxa-7,10-diaza-1(3,1)-piperidina-5(1,3)-benzenacyclotetradecaphane-12-yl)piperazine-1-carboxamide], for which the IC50 in test [1], in test [2], in test [3], in test [4], in test [5] and in test [6] was less than 100 nM throughout.

The record behind these values is patent US20240415819A1, “MACROCYCLIC COMPOUNDS AS PROTEASOME SUBUNIT BETA TYPE-5 INHIBITORS” (Lead Discovery Center GmbH, priority 2021, published 2024).
